Assay results as given in US20250059139A1, “COMPOUNDS FOR TREATMENT OF CANCER” (THE JOHNS HOPKINS UNIVERSITY, priority 2021, published 2025).
pEC50: −log10 of the molar value. Read-outs that look alike come from different tables or passages of the source.

Experiments:
[1] = biological target: T1, fl-R681A/R798A double mutant HDAC4 / fl-NCoR1 (Homo sapiens, UniProt P56524, R681A/R798A); experiment: SPR inhibition of fl-R681A/R798A double mutant HDAC4 binding to fl-NCoR1; conditions: plateau at 2 μM TasQ
T1 construct: Full-length (fl) [A.A. 1-1082] recombinant human histone deacetylase 4 (rhHDAC4) protein; FLAG (N); GST (given as 'with or without'); host or cells: HEK293-T (HDAC4)
Method: Surface Plasmon Resonance (SPR) Binding Analysis. SPR analysis was performed on the Biacore 3000™ system using CM5 sensor chips, certified buffers (HBS-P—10 mM HEPES, 0.15 M NaCl, pH 7.4, containing 0.005% v/v Surfactant P; HBS-EP-HBS-P with 3 mM EDTA) and reagents for immobilization and surface regeneration from Biacore, GE Healthcare, Uppsala Sweden. Evaluation of sensorgrams was performed using the BIA-evaluation Software version 4.1 and GraphPad Prism 4. Buffer of protein reagents were changed to HBS-P on Zeba spin desalting columns (Thermo Scientific) prior to being used in SPR analysis (Isaacs 2013).
C. Inhibition of HDAC4-NCoR1 interaction by TasQ. The interaction between HDAC4 and NCoR1 was studied either by injecting NCoR over immobilized HDAC4 or with an alternative orientation where HDAC4 was passed over a surface with covalently coupled NCoR1. Whether TasQ can inhibit the formation of the functional HDAC4-NCoR1 complex was tested by pre-incubation with NCoR1 or HDAC4.
These additional analyses again documented high-affinity binding of the wild-type fl-HDAC4 protein to fl-NCoR1 with such binding being competed by pre-incubation with TasQ in solution (FIG. 21).

[2] = test system: LvCaP-3 human prostate cancer PDXs; experiment: In vivo growth of LvCaP-3 xenografts in castrate hosts; conditions: daily oral 10 mg/kg
Source text: (§1) Prostate Cancer Models. The source, history, and characteristics of the human prostate cancer cell lines and PDXs used, as well as cell culture conditions for their in vitro maintenance and the in vivo protocol for xenograft growth in triple immune-deficient NSG (i.e. NOD.Cg-PrkdcScidIl2rgtmlWji/Szj), adult (>8 week old) male mice obtained from the Sidney Kimmel Comprehensive Cancer Center (SKCCC) Animal Core Facility are described previously (Isaacs 2013; Brennen et al. JCI Insight. 2021, 6(8):e146827; Zhu et al. Oncogene 2020, 39(45): 6935-6949). […] In vitro growth curves were determined as described (Isaacs 2013). In vivo growth response to oral daily TasQ (10 mg/kg/d) of TRAMP-C2 mouse prostate cancers was evaluated in C57BL/6J syngeneic wild type vs. NOX-2 vs. iNOS null male mice obtained from Jackson Laboratory (Bar Harbor, ME). Growth response to oral daily TasQ (10 mg/kg/d) of TRAMP-C2 and B6CaP mouse prostate cancers was also evaluated in S100A9 null C57BL′6J male mice obtained from Dmitry Gabrilovich (Wistar Institute). […] In vitro growth curves were determined as described (Isaacs 2013). Growth response to daily oral TasQ vs. ESATA-20 (both at 10 mg/kg/d) of Myc-CaP-CR mouse prostate cancer was evaluated in syngeneic FVB/NJ castrate male mice from Jackson Laboratory. […]

[3] = test system: CWR-22Rv1 dominant-positive mutant HIF-1α cells; experiment: In vivo growth of CWR-22Rv1 xenografts expressing dominant-positive mutant HIF-1α; design: species or system human; conditions: daily oral 10 mg/kg/d
Source text: as §1

solid malignances = conditions: cited from earlier work
[4] = biological target: T2, Human Aryl Hydrocarbon Receptor (AHR) (Homo sapiens, UniProt P35869); experiment: Human AHR reporter assay (cell-based  luciferase reporter gene assay)
T2 construct: purchased Indigo Biosciences IB06001
T2 sequence (P35869 11-848): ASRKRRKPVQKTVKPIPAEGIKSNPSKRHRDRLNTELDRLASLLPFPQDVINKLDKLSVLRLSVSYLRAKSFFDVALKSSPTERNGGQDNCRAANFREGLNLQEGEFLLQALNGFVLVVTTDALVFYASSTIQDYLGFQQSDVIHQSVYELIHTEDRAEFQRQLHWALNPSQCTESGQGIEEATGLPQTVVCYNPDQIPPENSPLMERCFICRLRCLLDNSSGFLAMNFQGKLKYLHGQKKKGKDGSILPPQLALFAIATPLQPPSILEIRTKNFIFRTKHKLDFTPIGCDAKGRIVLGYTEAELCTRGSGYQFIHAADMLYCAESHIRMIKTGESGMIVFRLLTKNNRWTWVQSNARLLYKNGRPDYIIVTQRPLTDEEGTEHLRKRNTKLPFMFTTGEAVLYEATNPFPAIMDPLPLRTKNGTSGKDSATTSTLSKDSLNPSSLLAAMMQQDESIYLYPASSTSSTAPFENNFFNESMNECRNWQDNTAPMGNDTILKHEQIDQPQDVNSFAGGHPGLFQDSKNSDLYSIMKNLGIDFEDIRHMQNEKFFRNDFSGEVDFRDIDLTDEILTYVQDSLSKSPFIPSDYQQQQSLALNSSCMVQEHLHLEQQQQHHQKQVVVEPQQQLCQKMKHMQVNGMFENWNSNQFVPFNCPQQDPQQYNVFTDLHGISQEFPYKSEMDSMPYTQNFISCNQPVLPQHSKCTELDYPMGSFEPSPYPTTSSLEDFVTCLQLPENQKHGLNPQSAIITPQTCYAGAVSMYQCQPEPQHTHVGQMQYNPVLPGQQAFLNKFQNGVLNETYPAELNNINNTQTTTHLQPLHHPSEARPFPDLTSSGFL
Source text: AHR Agonist Assay. Human Aryl Hydrocarbon Receptor (AHR) Reporter Assay System [Indigo Biosciences (State College, Pa) Cat #IB06001] was used as per the manufacturer's protocol.
Thus, a series of quinoline-3-carboxamide analogs were synthesized focusing upon adduct changes at the aniline-N. These analogs were synthesized as described in Example 1, and were initially screened for their AHR agonist activity using the in vitro human cell-based ARE-driven luciferase reporter gene assay (Table 3).

T1 sequence (P56524 whole entry R681A/R798A): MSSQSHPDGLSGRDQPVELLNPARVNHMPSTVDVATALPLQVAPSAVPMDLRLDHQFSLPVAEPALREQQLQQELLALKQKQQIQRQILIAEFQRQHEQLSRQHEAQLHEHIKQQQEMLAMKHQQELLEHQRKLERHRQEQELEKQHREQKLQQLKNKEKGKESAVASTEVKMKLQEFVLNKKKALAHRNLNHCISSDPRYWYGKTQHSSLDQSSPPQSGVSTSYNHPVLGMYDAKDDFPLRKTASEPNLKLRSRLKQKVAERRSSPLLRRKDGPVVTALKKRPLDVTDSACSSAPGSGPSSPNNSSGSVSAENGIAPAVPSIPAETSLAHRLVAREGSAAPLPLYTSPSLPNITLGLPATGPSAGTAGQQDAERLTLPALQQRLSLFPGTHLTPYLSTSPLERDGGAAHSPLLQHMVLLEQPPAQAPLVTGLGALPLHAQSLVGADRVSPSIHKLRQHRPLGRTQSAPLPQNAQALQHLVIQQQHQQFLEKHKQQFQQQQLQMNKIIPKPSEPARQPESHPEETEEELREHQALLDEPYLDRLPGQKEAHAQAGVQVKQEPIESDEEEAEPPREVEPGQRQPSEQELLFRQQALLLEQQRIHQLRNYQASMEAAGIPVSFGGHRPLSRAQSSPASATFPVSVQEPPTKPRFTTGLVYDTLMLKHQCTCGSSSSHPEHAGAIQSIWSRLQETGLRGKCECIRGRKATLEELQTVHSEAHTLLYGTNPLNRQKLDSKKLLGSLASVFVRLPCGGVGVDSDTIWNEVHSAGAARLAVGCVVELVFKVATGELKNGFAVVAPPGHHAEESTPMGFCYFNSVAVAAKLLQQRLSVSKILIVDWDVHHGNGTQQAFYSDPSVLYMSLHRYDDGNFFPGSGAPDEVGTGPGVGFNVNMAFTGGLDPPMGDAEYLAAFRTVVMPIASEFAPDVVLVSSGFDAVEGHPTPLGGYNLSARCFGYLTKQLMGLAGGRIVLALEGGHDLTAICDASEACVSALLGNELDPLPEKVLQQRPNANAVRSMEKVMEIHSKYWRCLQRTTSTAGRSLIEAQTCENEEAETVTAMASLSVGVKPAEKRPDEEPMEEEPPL

| SMILES | inhibition at 2 µM [1] [%] | inhibition of growth of LvCaP-3 xenografts at the end of study [2] | growth inhibition of dominant-positive mutant HIF-1α tumors [3] [%] | fold increase in anti-tumor efficacy compared to Linomide (solid malignances; in vivo) [fold] | fold enhanced potency in antiangiogenic and anti-metastatic ability (solid malignances; preclinical studies, vs. first-generation Linomide) | pEC50 ([4]; luciferase reporter gene assay, read-out: AHR agonist EC50) | EC50 ([4]; n = 4 independent assays/analog, read-out: AHR Agonist Response [EC50] (nM +/−SD)) [nM] |
| --- | --- | --- | --- | --- | --- | --- | --- |
| COc1cccc2c1c(O)c(C(=O)N(C)c1ccc(C(F)(F)F)cc1)c(=O)n2C [TasQ, Tasquinimod] | < 35 | ⅔ | < 25 | > 25 | 30-60 fold | – | – |
| COc1cccc2c1c(O)c(C(=O)N(c1ccc(C(F)(F)F)cc1)C1CCCCC1)c(=O)n2C [ESATA-20] | – | – | – | – | – | 5.00 | 10200 |
